Test results published in ChEMBL document CHEMBL3588838, “A full conformational characterization of antiandrogen cortexolone-17-propionate and related compounds through theoretical calculations and nuclear magnetic resonance spectroscopy” (Medchemcomm, 2014).
Active and inactive are the calls of the source. The calls are words filed in the database; no cut-off is given here.

Columns and labels:
[1] = system: Plasma; assay: Drug metabolism in rat plasma assessed as cortexolone-21-propionate formation after up to 8 hrs by HPLC analysis in presence of 50 ug/ml dichlofvos; assay type: ADME, cell-free
[2] = system: Syrian golden hamster; assay: Antiandrogenic activity in female Syrian golden hamsters assessed as inhibition of testosterone propionate-induced flank organ enlargement at 400 ug per animal, topically relative to untreated control; assay type: functional, Mesocricetus auratus
[3] = system: Syrian golden hamster; assay: Antiandrogenic activity in female Syrian golden hamsters assessed as inhibition of testosterone propionate-induced flank organ enlargement at 200 ug per animal, topically relative to untreated control; assay type: functional, Mesocricetus auratus
[4] = Drug metabolism in rat plasma assessed as compound remaining after 0 mins by HPLC analysis; assay type: ADME, cell-free; settings: read-out: Drug metabolism
[5] = Drug metabolism in human plasma assessed as compound remaining after 2 hrs by HPLC analysis; assay type: ADME, cell-free; settings: read-out: Drug metabolism
[6] = system: Rattus norvegicus; assay: Antiandrogenic activity in sc dosed male castrated Wistar rat assessed as inhibition of testosterone propionate-induced ventral prostate gland organ effect; assay type: functional, organism-based
[7] = Drug metabolism in rat skin homogenate assessed as compound remaining after 2 hrs by HPLC analysis; assay type: ADME, tissue-based, Zone of skin; settings: read-out: Drug metabolism
[8] = Drug metabolism in human plasma assessed as compound remaining after 30 mins by HPLC analysis; assay type: ADME, cell-free; settings: read-out: Drug metabolism
[9] = Drug metabolism in human plasma assessed as compound remaining after 6 hrs by HPLC analysis; assay type: ADME, cell-free; settings: read-out: Drug metabolism
[10] = Drug metabolism in rat skin homogenate assessed as compound remaining after 8 hrs by HPLC analysis; assay type: ADME, tissue-based, Zone of skin; settings: read-out: Drug metabolism
[11] = Drug metabolism in rat plasma assessed as compound remaining after 4 hrs by HPLC analysis; assay type: ADME, cell-free; settings: read-out: Drug metabolism
[12] = Drug metabolism in rat plasma assessed as compound remaining after 5 mins by HPLC analysis; assay type: ADME, cell-free; settings: read-out: Drug metabolism
[13] = Drug metabolism in rat skin homogenate assessed as compound remaining after 16 hrs by HPLC analysis; assay type: ADME, tissue-based, Zone of skin; settings: read-out: Drug metabolism
[14] = Drug metabolism in rat plasma assessed as compound remaining after 30 mins by HPLC analysis; assay type: ADME, cell-free; settings: read-out: Drug metabolism
[15] = Drug metabolism in rat plasma assessed as compound remaining after 8 hrs by HPLC analysis; assay type: ADME, cell-free; settings: read-out: Drug metabolism
[16] = Drug metabolism in human plasma assessed as compound remaining after 0 mins by HPLC analysis; assay type: ADME, cell-free; settings: read-out: Drug metabolism
[17] = system: Rattus norvegicus; assay: Antiandrogenic activity in sc dosed male castrated Wistar rat assessed as inhibition of testosterone propionate-induced preputial gland organ effect; assay type: functional, organism-based
[18] = Drug metabolism in rat plasma assessed as compound remaining after 15 mins by HPLC analysis; assay type: ADME, cell-free; settings: read-out: Drug metabolism
[19] = system: Syrian golden hamster; assay: Antiandrogenic activity in female Syrian golden hamsters assessed as inhibition of testosterone propionate-induced flank organ enlargement at 100 ug per animal, topically relative to untreated control; assay type: functional, Mesocricetus auratus
[20] = Drug metabolism in rat skin homogenate assessed as compound remaining after 5 mins by HPLC analysis; assay type: ADME, tissue-based, Zone of skin; settings: read-out: Drug metabolism
[21] = Drug metabolism in rat plasma assessed as compound remaining after 2 hrs by HPLC analysis; assay type: ADME, cell-free; settings: read-out: Drug metabolism
[22] = Drug metabolism in rat skin homogenate assessed as compound remaining after 0 mins by HPLC analysis; assay type: ADME, tissue-based, Zone of skin; settings: read-out: Drug metabolism
[23] = system: Rattus norvegicus; assay: Glucocorticoid activity in male castrated Wistar rat assessed as reduction in adrenal weight at 100 mg/kg, sc; assay type: functional, organism-based
[24] = Drug metabolism in human plasma assessed as compound remaining after 4 hrs by HPLC analysis; assay type: ADME, cell-free; settings: read-out: Drug metabolism
[25] = target: T1, Androgen receptor (Homo sapiens, UniProt P10275); assay: Displacement of [3H]methyltrienolone from androgen receptor in human prostate cancer cells; assay type: cell-based, Cancer cell lines
T1 sequence (P10275 whole entry): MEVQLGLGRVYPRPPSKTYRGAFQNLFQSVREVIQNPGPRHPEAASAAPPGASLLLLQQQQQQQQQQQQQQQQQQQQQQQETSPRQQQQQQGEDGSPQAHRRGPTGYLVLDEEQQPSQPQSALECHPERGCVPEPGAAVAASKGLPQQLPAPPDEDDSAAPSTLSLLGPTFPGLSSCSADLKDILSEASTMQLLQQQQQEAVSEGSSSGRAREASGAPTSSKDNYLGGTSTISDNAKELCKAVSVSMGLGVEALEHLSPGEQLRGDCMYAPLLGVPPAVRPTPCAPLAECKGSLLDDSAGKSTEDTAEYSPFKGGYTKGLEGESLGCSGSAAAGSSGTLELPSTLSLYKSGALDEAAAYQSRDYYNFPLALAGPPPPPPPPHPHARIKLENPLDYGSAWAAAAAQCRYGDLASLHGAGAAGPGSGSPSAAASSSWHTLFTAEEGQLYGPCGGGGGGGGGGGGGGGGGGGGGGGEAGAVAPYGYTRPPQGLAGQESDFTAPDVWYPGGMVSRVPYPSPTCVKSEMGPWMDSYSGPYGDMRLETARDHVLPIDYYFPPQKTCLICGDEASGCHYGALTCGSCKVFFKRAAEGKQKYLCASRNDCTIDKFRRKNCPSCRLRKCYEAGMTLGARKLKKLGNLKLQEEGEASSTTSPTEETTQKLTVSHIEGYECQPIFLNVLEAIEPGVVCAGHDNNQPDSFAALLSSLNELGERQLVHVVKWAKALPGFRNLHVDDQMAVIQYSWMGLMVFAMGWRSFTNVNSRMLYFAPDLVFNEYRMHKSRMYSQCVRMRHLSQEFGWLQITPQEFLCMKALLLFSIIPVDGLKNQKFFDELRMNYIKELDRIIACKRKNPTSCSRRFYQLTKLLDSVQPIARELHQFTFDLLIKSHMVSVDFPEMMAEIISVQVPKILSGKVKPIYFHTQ

[26] = system: Rattus norvegicus; assay: Antiandrogenic activity in sc dosed male castrated Wistar rat assessed as inhibition of testosterone propionate-induced seminal vesicles gland organ effect; assay type: functional, organism-based
[27] = system: Rattus norvegicus; assay: Glucocorticoid activity in male castrated Wistar rat assessed as reduction in thymus weight at 100 mg/kg, sc; assay type: functional, organism-based
[28] = target: Steroid 5-alpha-reductase (Homo sapiens) (UniProt P18405+P31213+Q9H8P0); assay: Inhibition of 5alpha-reductase in human epidermis assessed as inhibition of [14C]testosterone to DHT after 24 hrs; assay type: protein assay
Steroid 5-alpha-reductase (Homo sapiens), sequence (P18405 whole entry, looked up): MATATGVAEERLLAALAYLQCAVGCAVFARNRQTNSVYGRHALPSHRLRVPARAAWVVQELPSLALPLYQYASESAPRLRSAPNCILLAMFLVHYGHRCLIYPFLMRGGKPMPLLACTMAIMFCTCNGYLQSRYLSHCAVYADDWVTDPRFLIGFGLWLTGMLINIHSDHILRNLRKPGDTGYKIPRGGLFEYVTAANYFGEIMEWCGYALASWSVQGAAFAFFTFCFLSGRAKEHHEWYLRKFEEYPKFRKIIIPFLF
Steroid 5-alpha-reductase (Homo sapiens), sequence (P31213 whole entry, looked up): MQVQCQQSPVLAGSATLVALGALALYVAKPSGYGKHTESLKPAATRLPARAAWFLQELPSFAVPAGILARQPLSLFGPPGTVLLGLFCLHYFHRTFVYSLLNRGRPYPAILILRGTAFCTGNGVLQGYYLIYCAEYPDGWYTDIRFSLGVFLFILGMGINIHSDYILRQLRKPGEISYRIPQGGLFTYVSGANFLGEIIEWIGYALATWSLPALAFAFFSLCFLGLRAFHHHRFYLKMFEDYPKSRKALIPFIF
Steroid 5-alpha-reductase (Homo sapiens), sequence (Q9H8P0 whole entry, looked up): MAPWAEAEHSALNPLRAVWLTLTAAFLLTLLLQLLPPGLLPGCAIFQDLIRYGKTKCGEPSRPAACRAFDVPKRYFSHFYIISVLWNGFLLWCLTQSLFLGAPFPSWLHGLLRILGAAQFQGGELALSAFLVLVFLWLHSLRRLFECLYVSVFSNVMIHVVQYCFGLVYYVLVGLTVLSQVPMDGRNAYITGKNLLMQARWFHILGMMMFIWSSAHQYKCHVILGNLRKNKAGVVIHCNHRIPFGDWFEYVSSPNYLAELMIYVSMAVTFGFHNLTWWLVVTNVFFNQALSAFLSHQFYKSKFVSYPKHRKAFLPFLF

[29] = Drug metabolism in rat skin homogenate assessed as compound remaining after 15 mins by HPLC analysis; assay type: ADME, tissue-based, Zone of skin; settings: read-out: Drug metabolism
[30] = Drug metabolism in rat skin homogenate assessed as compound remaining after 30 mins by HPLC analysis; assay type: ADME, tissue-based, Zone of skin; settings: read-out: Drug metabolism
[31] = Drug metabolism in rat plasma assessed as compound remaining after 1 hr by HPLC analysis; assay type: ADME, cell-free; settings: read-out: Drug metabolism
[32] = Drug metabolism in rat skin homogenate assessed as compound remaining after 24 hrs by HPLC analysis; assay type: ADME, tissue-based, Zone of skin; settings: read-out: Drug metabolism
[33] = Drug metabolism in human plasma assessed as compound remaining after 1 hr by HPLC analysis; assay type: ADME, cell-free; settings: read-out: Drug metabolism
[34] = Drug metabolism in rat skin homogenate assessed as compound remaining after 1 hr by HPLC analysis; assay type: ADME, tissue-based, Zone of skin; settings: read-out: Drug metabolism
[35] = Drug metabolism in rat skin homogenate assessed as compound remaining after 4 hrs by HPLC analysis; assay type: ADME, tissue-based, Zone of skin; settings: read-out: Drug metabolism

CCC(=O)OCC(=O)[C@@]1(O)CC[C@H]2[C@@H]3CCC4=CC(=O)CC[C@]4(C)[C@H]3CC[C@@]21C
Drug metabolism [1]: metabolite_detected | inhibition (INH) [2]: 29%

CCC(=O)OCC(=O)[C@@]1(OC(=O)CC)CC[C@H]2[C@@H]3CCC4=CC(=O)CC[C@]4(C)[C@H]3CC[C@@]21C
inhibition (INH) [2]: 57%

CCCC(=O)O[C@]1(C(=O)CO)CC[C@H]2[C@@H]3CCC4=CC(=O)CC[C@]4(C)C3=CC[C@@]21C
inhibition (INH) [2]: 85%

CCC(=O)O[C@]1(C(=O)CO)CC[C@H]2[C@@H]3CCC4=CC(=O)CC[C@]4(C)[C@H]3CC[C@@]21C [CLASCOTERONE]
inhibition (INH) [3]: 78% | remaining at 0 h [4]: 100% | remaining at 2 h [5]: 67.2% | Activity [6]: inactive | remaining at 2 h [7]: 69.5% | remaining at 0.5 h [8]: 93.2% | remaining at 6 h [9]: 11.3% | remaining at 8 h [10]: 49.5% | remaining at 4 h [11]: 20% | remaining at 5 min [12]: 90% | remaining at 16 h [13]: 44.8% | remaining at 0.5 h [14]: 80% | remaining at 8 h [15]: 0% | remaining at 0 h [16]: 99.6% | Activity [17]: inactive | remaining at 0.25 h [18]: 90% | inhibition (INH) [19]: 40% | remaining at 5 min [20]: 99% | remaining at 2 h [21]: 50% | remaining at 0 h [22]: 99% | inhibition [23]: Active | remaining at 4 h [24]: 30.3% | IC50 [25]: 50 nM | Ki [25]: 40 nM | Activity [26]: inactive | inhibition [27]: Active | inhibition [28]: inactive | remaining at 0.25 h [29]: 99% | remaining at 0.5 h [30]: 98.5% | remaining at 1 h [31]: 60% | remaining at 24 h [32]: 44.8% | remaining at 1 h [33]: 85.2% | remaining at 1 h [34]: 89.5% | inhibition (INH) [2]: 84% | remaining at 4 h [35]: 59.5%

C[C@]12CCC(=O)C=C1CC[C@@H]1[C@@H]2CC[C@@]2(C)[C@H]1CC[C@]2(O)C(=O)CO [CORTODOXONE]
inhibition (INH) [2]: 0%

CC(=O)O[C@]1(C(C)=O)CC[C@H]2[C@@H]3C=C(Cl)C4=CC(=O)[C@@H]5C[C@@H]5[C@]4(C)[C@H]3CC[C@@]21C [CYPROTERONE ACETATE]
inhibition (INH) [2]: 93%

CC(C)(C)NC(=O)[C@H]1CC[C@H]2[C@@H]3CC[C@H]4NC(=O)C=C[C@]4(C)[C@H]3CC[C@]12C [FINASTERIDE]
inhibition (INH) [2]: 71%
